Laboratory results: paper PMC4536076, “Chemical Library Screening and Structure-Function Relationship Studies Identify Bisacodyl as a Potent and Selective Cytotoxic Agent Towards Quiescent Human Glioblastoma Tumor Stem-Like Cells” (PLoS ONE, 2015)
Where a name gives a salt, the structure may show the parent alone. Read-outs that look alike come from different tables or passages of the source.

Legend:
[1] = test system: proliferating TG1 GSCs; assay: ATP-Glo dose-response, proliferating TG1 GSCs; format: cell-based, human; settings: SAR study, ATP-Glo cell survival assay, 24 h, triplicate; for EC50: read-out: Proliferating TG1 GSCs EC50
Method: (§1) The EC50 value was determined for each compound by fitting the data points according to the following equation: y=Smax+Smin*(x*1/EC50)^n/1+(x*1/EC50)^n where y represents the expected response, x is the chemical compound concentration, S max and S min are the maximum and minimum responses recorded, respectively and n is the Hill coefficient. Curve fitting was performed using Microsoft Excel Solver component.
(§2) Proliferating or quiescent TG1 cells were seeded in 50 μL of their respective media (30 000 and 40 000 viable cells/well, respectively) into 96-well opaque bottom plates (Greiner, Courtaboeuf, France). Compound treatment was performed by adding 50 μL of compound solutions (in the presence of 2% DMSO in culture medium). […] All compounds were tested in triplicate in each experiment. Independent experiments were performed at least twice for almost all of the compounds.

[2] = test system: quiescent TG1 GSCs; assay: ATP-Glo dose-response, quiescent TG1 GSCs; format: cell-based, human; settings: for EC50 / Quiescent TG1 GSCs EC50: SAR study, ATP-Glo cell survival assay, 24 h, triplicate; for EC50: read-out: Quiescent TG1 GSCs EC50
Method: as §1, §2

[3] = test system: proliferating TG1 GSCs; settings: 50 μM; for Activity on proliferating TG1 GSCs (hit compounds reducing ATP levels): primary screen, 24 h
Method: (§3) Proliferating or quiescent TG1 GSCs were seeded (30 000 and 40 000 viable cells/well, respectively) into 96-well opaque bottom plates (Greiner) with the Biomek FX robot (Beckman Coulter). Each compound from the Prestwick Library was then added (final concentration: 50 μM; 1% DMSO). Each molecule was tested once. Negative control wells (12/96 per assay plate) contained cells treated with 1% DMSO (final concentration) and positive control wells (4/96 per assay plate) contained cells treated with the fungal toxin ophiobolin A (Sigma Aldrich) at 50 μM with 1% DMSO. […] Luminescence in each well was measured with the Victor3 plate reader (PerkinElmer).
(§4) Relative ATP levels in each well were determined by calculating the percentage of luminescent signal in the well with respect to the average signal measured in negative control wells.
(§5) Primary screen hits were further tested in duplicate, at two concentrations (50 and 5 μM) on proliferating and quiescent TG1 GSCs. Cell plating and treatment with compounds were as for the primary screen. Hit selection/confirmation criteria for quiescent cells were as described above.

[4] = test system: quiescent TG1 GSCs; settings: 50 μM
Method: as §3, §4, §5

Row | Compound | Activity on proliferating TG1 GSCs (hit compounds reducing ATP levels) [3] | Activity on quiescent TG1 GSCs (hit compounds reducing ATP levels) ([4]; primary screen, 24 h) | further results
1 | 4-hydroxyphenyl-4-phenyl-(pyridin-2-yl)-methane [Compound 7] | – | – | EC50 [1]: > 100 µM; EC50 [2]: 17.1 ± 6.3 µM
2 | 4-hydroxyphenyl-4-trifluoromethylphenyl-2-pyrimidyl-methane [Compound 11] | – | – | EC50 [1]: > 100 µM; EC50 [2]: 12.4 ± 6.9 µM
3 | Clc1ccc(CCC(Cn2ccnc2)Sc2c(Cl)cccc2Cl)cc1 (stereo not drawn) [Butoconazole nitrate] | yes | yes | –
4 | CC[C@H]1CN2CCc3cc(OC)c(OC)cc3[C@@H]2C[C@@H]1C[C@H]1NCCc2cc(O)c(OC)cc21.Cl.Cl.O.O.O.O.O.O.O [Cephaeline dihydrochloride heptahydrate] | yes | yes | –
5 | CCN(CC)CCOc1ccc(C(=C(Cl)c2ccccc2)c2ccccc2)cc1.O=C(O)CC(O)(CC(=O)O)C(=O)O [Clomiphene citrate (Z, E)] | yes | yes | –
6 | Clc1ccccc1C(c1ccccc1)(c1ccccc1)n1ccnc1 [Clotrimazol] | yes | yes | –
7 | Oc1ccc(C(c2ccc(O)cc2)c2ccccn2)cc1 [Compound 2, 4,4'-dihydroxydiphenyl(pyridine-2-yl)methane] | – | – | EC50 ([1]; Homo sapiens): > 100 µM; EC50 ([2]; Homo sapiens): 1 ± 0.5 µM
8 | CC(=O)Oc1ccc(C(c2ccc(O)cc2)c2ccccn2)cc1 (stereo not drawn) [Compound 3, 4-((4-hydroxyphenyl)(pyridin-2-yl)methyl)phenyl acetate] | – | – | EC50 ([1]; Homo sapiens): > 100 µM; EC50 ([2]; Homo sapiens): 1 ± 0.5 µM
9 | COc1ccc(C(c2ccc(OC)cc2)c2ccccn2)cc1 [Compound 4, 4,4'-dimethoxydiphenyl(pyridin-2-yl)methane] | – | – | Proliferating TG1 GSCs EC50 [1]: No activity; Quiescent TG1 GSCs EC50 [2]: No activity
10 | COc1ccc(C(c2ccc(O)cc2)c2ccccn2)cc1 (stereo not drawn) [Compound 5, 4-hydroxyphenyl-4-methoxyphenyl-(pyridin-2-yl)-methane] | – | – | EC50 ([1]; Homo sapiens): > 100 µM; EC50 ([2]; Homo sapiens): 8 ± 6 µM; fold increase in EC50 (activity decrease) compared to DDPM (compound 2) ([2]; quiescent TG1 GSCs): 8 fold
11 | Oc1ccc(Cc2ccccn2)cc1 [Compound 8, 2-(4-Hydroxybenzyl)pyridine] | – | – | Proliferating TG1 GSCs EC50 [1]: No activity; Quiescent TG1 GSCs EC50 [2]: No activity
12 | Oc1ccc(C(c2ccccn2)c2ccccc2O)cc1 (stereo not drawn) [Compound 9, (2-hydroxyphenyl)-(4-hydroxyphenyl)-(pyridin-2-yl)-methane] | – | – | Proliferating TG1 GSCs EC50 [1]: No activity; EC50 ([2]; Homo sapiens): 57.6 ± 0.7 µM
13 | Oc1ccc(C(c2ccc(Cl)cc2)c2ccccn2)cc1 (stereo not drawn) [Compound 10, 4-hydroxyphenyl-4-chlorophenyl-pyridin-2-yl-methane] | – | – | EC50 ([1]; Homo sapiens): > 100 µM; EC50 ([2]; Homo sapiens): 4 ± 1.4 µM
14 | CC/C(=C(/CC)c1ccc(O)cc1)c1ccc(O)cc1 [Diethylstilbestrol] | yes | yes | –
15 | Cl.Cl.Fc1ccc(C(OCCN2CCN(CCCc3ccccc3)CC2)c2ccc(F)cc2)cc1 [GBR 12909 dihydrochloride] | yes | yes | –
16 | Cc1cc2c(C(C)C)c(O)c(O)c(C=O)c2c(O)c1-c1c(C)cc2c(C(C)C)c(O)c(O)c(C=O)c2c1O [Gossypol] | yes | yes | –
17 | Clc1ccc(C(Cn2ccnc2)OCc2c(Cl)cccc2Cl)c(Cl)c1 (stereo not drawn) [Isoconazole] | yes | yes | –
18 | CC(=O)O[C@H]1C[C@H](O[C@H]2[C@@H](O)C[C@H](O[C@H]3[C@@H](O)C[C@H](O[C@H]4CC[C@@]5(C)[C@H](CC[C@@H]6[C@@H]5C[C@@H](O)[C@]5(C)[C@@H](C7=CC(=O)OC7)CC[C@]65O)C4)O[C@@H]3C)O[C@@H]2C)O[C@H](C)[C@H]1O[C@@H]1O[C@H](CO)[C@@H](O)[C@H](O)[C@H]1O [Lanatoside C] | yes | yes | –
19 | CC[C@@H](C(=O)[C@@H](C)[C@@H](O)[C@H](C)CCc1ccc(C)c(O)c1C(=O)[O-])[C@H]1O[C@](CC)([C@H]2CC[C@](O)(CC)[C@H](C)O2)C[C@@H]1C.[Na+] [Lasalocid sodium salt] | yes | yes | –

Row | Compound | Activity on proliferating TG1 GSCs (hit compounds reducing ATP levels) [3] | Activity on quiescent TG1 GSCs (hit compounds reducing ATP levels) ([4]; primary screen, 24 h) | further results
20 | O[C@H]1[C@H]2c3cc4c(cc3CN3CCC(=C[C@@H]1O)[C@H]23)OCO4 [Lycorine hydrochloride] | yes | yes | –
21 | Cc1cccc(CN2CCN(C(c3ccccc3)c3ccc(Cl)cc3)CC2)c1.Cl.Cl (stereo not drawn) [Meclozine dihydrochloride] | yes | yes | –
22 | OC(c1cc(C(F)(F)F)nc2c(C(F)(F)F)cccc12)C1CCCCN1 (stereo not drawn) [Mefloquine hydrochloride] | yes | yes | –
23 | CC1=CC(=O)c2ccccc2C1=O [Menadione] | yes | yes | –
24 | Clc1ccc(COC(Cn2ccnc2)c2ccc(Cl)cc2Cl)c(Cl)c1 (stereo not drawn) [Miconazole] | yes | yes | –
25 | CCOC(=O)C1=C(C)NC(C)=C(C(=O)OC)C1c1cccc([N+](=O)[O-])c1 (stereo not drawn) [Nitrendipine] | yes | – | Activity on quiescent TG1 CSCs (hit compounds increasing ATP levels) ([4]; primary screen, 24 h): yes
26 | O=C(N/N=C/c1ccc([N+](=O)[O-])o1)c1ccc(O)cc1 [Nitrofuroxazide] | yes | yes | –
27 | CC(C)=C[C@H]1C[C@H](C)[C@]2(CC[C@]3(C)C[C@H]4[C@H](C(=O)C[C@@]4(C)O)/C(C=O)=C\C[C@H]32)O1 [Ophiobolin A] | – | – | cytotoxicity (positive control) ([3]; 1% DMSO, proliferating GSCs): cytotoxic; cytotoxicity (positive control) ([4]; 1% DMSO, quiescent GSCs): cytotoxic
28 | COc1cc2nc(N3CCN(C(=O)c4ccco4)CC3)nc(N)c2cc1OC [Prazosin hydrochloride] | yes | yes | –
29 | COc1cc(NC(C)CCCN)c2ncccc2c1 (stereo not drawn) [Primaquine diphosphate] | yes | yes | –
30 | C[n+]1cc2c3c(ccc2c2ccc4cc5c(cc4c21)OCO5)OCO3 [Sanguinarine] | yes | yes | –
31 | Clc1ccc(C(Cn2ccnc2)OCc2csc3c(Cl)cccc23)c(Cl)c1 (stereo not drawn) [Sertaconazole nitrate] | yes | yes | –
32 | CN[C@H]1CC[C@@H](c2ccc(Cl)c(Cl)c2)c2ccccc21 [Sertraline] | yes | yes | –
33 | CC/C(=C(\c1ccccc1)c1ccc(OCCN(C)C)cc1)c1ccccc1 [Tamoxifen citrate] | yes | yes | –
34 | CCCCCCCCCCCCCCCC[N+](C)(C)CCN(Cc1ccc(OC)cc1)c1ncccn1 [Thonzonium bromide] | yes | yes | –
35 | C[C@H]1CC[C@]2(NC1)O[C@H]1C[C@H]3[C@@H]4CC[C@H]5C[C@@H](O[C@@H]6O[C@H](CO)[C@H](O[C@@H]7O[C@H](CO)[C@@H](O)[C@H](O[C@@H]8OC[C@@H](O)[C@H](O)[C@H]8O)[C@H]7O[C@@H]7O[C@H](CO)[C@@H](O)[C@H](O)[C@H]7O)[C@H](O)[C@H]6O)CC[C@]5(C)[C@H]4CC[C@]3(C)[C@H]1[C@@H]2C [Tomatine] | yes | yes | –
36 | CCOC1O[C@H]([C@@H](COCc2ccccc2)OCc2ccccc2)[C@H](OCc2ccccc2)[C@H]1O (stereo partly drawn) [Tribenoside] | yes | yes | –
37 | Avermectin B1 | yes | yes | –
